We go through one compound from article PMC7656518 (ACS chemical biology, 2018).

Positions of bridges follow the written chain, without caps; N, C: chain ends. Residues, ends and D or L forms follow the SMILES beside them.

What is called Emax is the greatest response seen or fitted, relative to the assay's reference. One may read the EC50 as the concentration at which the effect is half-maximal. A low value points to a more potent agent.

For data set [1], the target named is T1, hCT(a) receptor (Homo sapiens, UniProt P30988).
T1 sequence (P30988 25-474): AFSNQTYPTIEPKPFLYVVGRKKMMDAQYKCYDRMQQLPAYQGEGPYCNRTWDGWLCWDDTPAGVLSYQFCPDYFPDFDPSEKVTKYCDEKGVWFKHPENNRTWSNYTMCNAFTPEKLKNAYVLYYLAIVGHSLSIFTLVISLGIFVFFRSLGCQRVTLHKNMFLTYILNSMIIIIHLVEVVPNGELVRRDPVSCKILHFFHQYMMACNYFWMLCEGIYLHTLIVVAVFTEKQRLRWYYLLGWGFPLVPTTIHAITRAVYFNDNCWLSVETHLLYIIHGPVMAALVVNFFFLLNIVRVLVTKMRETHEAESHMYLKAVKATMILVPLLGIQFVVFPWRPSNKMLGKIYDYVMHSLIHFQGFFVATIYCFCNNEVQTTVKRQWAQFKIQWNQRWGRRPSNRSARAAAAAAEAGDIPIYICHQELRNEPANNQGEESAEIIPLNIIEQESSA
Briefly: cAMP production. It is filed as cell-based. Background: Cyclic AMP is a second messenger, typically raised through Gs and lowered through Gi signalling.

Data set [2] concerns the target hAMY1(a) receptor (Homo sapiens, UniProt O60894+P30988). Briefly: cAMP production. It is filed as cell-based.
For data set [3], the target named is hAMY2(a) receptor (Homo sapiens, UniProt O60895+P30988). The experiment in a line: cAMP production. Format: cell-based.
Chain of hAMY2(a) receptor (O60895 43-175 partner, one chain of several): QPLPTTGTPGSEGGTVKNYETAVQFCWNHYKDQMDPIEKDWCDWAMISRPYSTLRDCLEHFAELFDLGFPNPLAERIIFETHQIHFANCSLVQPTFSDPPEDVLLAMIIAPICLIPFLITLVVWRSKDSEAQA
Data set [4] addresses T2, hAMY3(a) receptor (Homo sapiens, UniProt O60896+P30988).
T2 sequence (P30988 25-474): T1 sequence (P30988 25-474)
T2 sequence (O60896 24-148 partner): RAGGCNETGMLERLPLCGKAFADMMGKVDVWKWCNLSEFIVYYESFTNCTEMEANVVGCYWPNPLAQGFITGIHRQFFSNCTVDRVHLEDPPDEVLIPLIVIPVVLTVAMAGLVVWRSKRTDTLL
The experiment in a line: cAMP production. It is filed as cell-based.

Data set [5] concerns hCT(a), hAMY1(a), hAMY2(a), hAMY3(a) receptors. Briefly: cAMP production, overall statement for the four amylin-responsive receptors. It is filed as cell-based, human. The conditions noted are these: stimulation of cAMP production at hCT(a).
Data set [6] can be described thus: Thioflavin-T fluorescence amyloid formation kinetics and TEM in PBS. Format: physicochemical. The conditions noted are these: PBS (10 mM phosphate 140 mM KCl) pH 7.4.
Data set [7] can be described thus: Amyloid formation in presence of anionic large unilamellar vesicles. The conditions noted are these: LUV's 25% POPS / 75% POPC, final concentration 400 μM. Format: physicochemical.
The subject of data set [8] is rat INS-1/832-13 β-cells. The experiment in a line: Alamar Blue β-cell viability. The conditions noted are these: 30 μM peptide. For orientation: Alamar Blue is a resazurin reagent that responds to reducing activity.
Data set [9] can be described thus: Thioflavin-T fluorescence amyloid formation kinetics and TEM in Tris buffer.

Chain of hAMY1(a) receptor (O60894 27-148 partner, one chain of several): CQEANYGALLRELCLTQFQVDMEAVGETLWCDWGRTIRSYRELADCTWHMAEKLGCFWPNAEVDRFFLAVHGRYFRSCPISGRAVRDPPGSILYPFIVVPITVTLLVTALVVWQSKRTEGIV

Regarding `CC[C@H](C)[C@H](NC(=O)[C@H](C)NC(=O)CNC(=O)[C@H](CC(C)C)NC(=O)[C@H](CCCCN)NC(=O)[C@H](CC(N)=O)NC(=O)[C@H](CO)NC(=O)[C@H](CO)NC(=O)[C@@H]1CCCN1C(=O)[C@H](C)NC(=O)[C@H](CC(C)C)NC(=O)[C@H](Cc1ccccc1)NC(=O)[C@H](CC(N)=O)NC(=O)[C@H](C)NC(=O)[C@H](CC(C)C)NC(=O)[C@H](CCCNC(=N)N)NC(=O)[C@H](CCC(N)=O)NC(=O)[C@@H](NC(=O)[C@H](CCC(=O)O)NC(=O)[C@@H]1CSSC[C@H](NC(=O)[C@@H](N)CCCCN)C(=O)NCC(=O)N[C@@H]([C@@H](C)O)C(=O)N[C@@H](C)C(=O)N[C@@H]([C@@H](C)O)C(=O)N1)[C@@H](C)O)C(=O)N[C@@H](Cc1ccccc1)C(=O)N[C@@H](CO)C(=O)N1CCC[C@H]1C(=O)N[C@H](C(=O)N[C@@H](CCCCN)C(=O)N[C@@H](CCSC)C(=O)NCC(=O)N[C@@H](CO)C(=O)N[C@@H](CC(N)=O)C(=O)N[C@H](C(=O)N[C@@H](Cc1ccc(O)cc1)C(N)=O)[C@@H](C)O)[C@@H](C)O` [b-amylin] (H-KCGTATCETQRLANFLAPSSNKLGAIFSPTKMGSNTY-NH2; disulfide 2-7; N-terminus assumed), the Emax in data set [1] (COS-7) turned out to be 62.9 ± 8.25%; in [2] (COS-7), 83.1 ± 10.6%; in data set [3] (COS-7) it was 73.9 ± 4.27%; in data set [4] (COS-7) it was 62.4 ± 9.31%. The EC50 is 1550 nM in data set [1] (SEM), 912 nM in data set [2] (SEM), 1170 nM in [3] (SEM) and 1350 nM in data set [4] (SEM). Also, the agonist character result in data set [1] (hCT(a), cAMP production) was “partial agonist”; in data set [2] (hAMY1(a), cAMP production) it was “full agonist”. Further, the Fold-change in data set [1] (potency of b-amylin relative to h-amylin at hCT(a)) is reported as greater than −400; in data set [2] (potency of b-amylin relative to h-amylin at hAMY1(a)) it was greater than −5000; in [3] (potency of b-amylin relative to h-amylin at hAMY2(a)), greater than −600; in [4] (potency of b-amylin relative to h-amylin at hAMY3(a)), greater than −2000. Besides, in data set [5], the “fold less potent than h-amylin” value is “at least 300 fold”. Besides, in [6], the “amyloid fibrils by TEM” value is listed as “no amyloid fibrils were detected”. Also, the “increase in thioflavin-T fluorescence signal” value in [6] (7 days of incubation) is given as “no significant increase in thioflavin-T fluorescence signal was observed”; in [9] (16 μM peptide, 32 μM thioflavin-T, pH 7.4, 25°C, 20 mM Tris, 6 days of incubation), “no increase in thioflavin-T fluorescence signal was observed”. The “amyloid formation in presence of LUV's” value in [7] is recorded as “no amyloid formation was detected”. Besides, the “toxicity (in words)” value in [8] (24 h incubation) is on record as “did not exhibit any toxicity”; in data set [8] (84 h incubation), “not toxic”. Moreover, in data set [9] (20 mM Tris pH 7.4, highest concentration examined 64 μM), the “amyloid formation at a range of peptide concentrations” value is listed as “no amyloid was detected”.
